Experimental data taken from patent US20100267002A1, “PEPTIDE HAVING LIFE-LENGTHENING EFFECT ON CELLS” (National Institute of Advanced Industrial Science and …, priority 2009, published 2010).

Columns and labels:
[1] = tested on: HepG2 cells; test: HepG2 cell preservation at 4° C., survival ratio by Cellstain (Calcein-AM/PI) fluorescent double staining; assay type: cell-based, human; conditions: for cell survival ratio (fluorescent dye observation): HepG2, 4° C., 48 hours, peptide 10 mg/ml in Euro-Collins solution
Description: (§1) Nfe6-, Nfe8-, and Nfe11-based confirmation of cell protecting effects and cell preserving effects was performed with the use of the HepG2 cell line (FIG. 3) derived from the human liver (purchased from Riken Cell Bank). The experiment was carried out using the HepG2 cells that had been cultured for about a week in Dulbecco's Modified Eagle's Medium (DMEM) (Sigma-Aldrich, Japan) (a culture solution) containing 10% bovine serum (FBS, Gibco) and 50 μg/ml penicillin/streptomycin (Invitrogen). FBS was inactivated by heating at 56° C. for 30 minutes and then used. Culture was conducted in a CO2 incubator (SANYO) using a flask in an atmosphere of 5% CO2 at 37° C. The HepG2 cells that had reached subconfluent conditions (i.e., conditions immediately before the container becomes filled with cells) were treated with a trypsin solution (Wako Pure Chemical Industries, Ltd.) to prepare a cell suspension. The cell suspension was sowed on a cell culture microplate, culture was conducted in a CO2 incubator (5% CO2, 37° C.) overnight, and the resultant was then used for the preservation experiment. In all the experiments described below, cells were preserved at 4° C.
The cells that had been subjected to preservation treatment for 48 hours were stained with Cellstain (Cell Double Staining Kit, available from Dojindo Laboratories), and the cells were observed under a fluorescent microscope (Olympus IX70) to evaluate the survival ratio. Cellstain (Cell Double Staining Kit) involves the use of Calcein-AM fluorescent dye, which stains viable cells, in combination with PI (Propidium iodide) fluorescent dye, which stains dead cells. […] Thereafter, the cell culture plate was mounted on a fluorescent microscope, and “viable cells stained yellow green” were observed using a fluorescence cube for GFP (excitation filter: BP460-480; dichroic mirror: DM450; absorption filter: BA460-510). Also, “dead cells stained red” were observed using a fluorescence cube for YFP (excitation filter: BP490-500; dichroic mirror: DM505; absorption filter: BA515-560).

[2] = tested on: HepG2 cells; test: HepG2 cell preservation at 4° C., survival ratio by amount of LDH released; assay type: cell-based, human; conditions: HepG2, 4° C., peptide 10 mg/ml in EC solution, 11 repetitions; for survival ratio based on the assay of the amount of LDH: 24 hours
Description: as §1
Further, the cell survival ratio after 24-hour-preservation was estimated using the LDH Cytotoxicity Detection Kit (Takara Bio Inc.). The LDH amount was measured by sowing the cell suspension prepared by the method described in (5) on a 4-well cell culture plate (Nalge Nunc International K.K.) and subjecting the resultants to the preservation experiment at 4° C. for 24 hours and for 48 hours. […] The amount of red formazan generated was evaluated by assaying the absorbance at 490 nm using a microplate reader (Sunrise Remote, Wako Pure Chemical Industries, Ltd.). In this experiment, the LDH amount when the HepG2 cells had been preserved for 24 hours using a cell preservative solution containing 1% Triton X (the A2 solution) was designated as 100% and the percentage of LDH in the experiment was determined based thereon.

[3] = tested on: HepG2 cells; test: HepG2 cell preservation at 4° C., survival ratio by WST-8 (Cell Counting Kit-8); assay type: cell-based, human; conditions: HepG2, 4° C., 48 hours, peptide 10 mg/ml in EC solution, 11 repetitions
Description: as §1, with “The cell suspension was sowed on a cell culture microplate, culture was conducted in a CO2 incubator (5% CO2, 37° C.) overnight, and the resultant was then used for the preservation experiment. In all the experiments described below, cells were preserved at 4° C.” left out
[…] The amount of water-soluble formazan in the medium was evaluated by measuring the absorbance at 450 nm using a microplate reader (Sunrise Remote, Wako Pure Chemical Industries, Ltd.), and the percentage of viable cells after the cell preservation experiment was determined using the number of cells determined by adding WST-8 to the HepG2 cells before the preservation experiment as a control (100%).

[4] = tested on: HepG2 cells; test: HepG2 cell preservation at 4° C., survival ratio by amount of ATP (CellTiter-Glo); assay type: cell-based, human; conditions: HepG2, 4° C., 48 hours, peptide 10 mg/ml in EC solution, 11 repetitions
Description: Nfe6-, Nfe8-, and Nfe11-based confirmation of cell protecting effects and cell preserving effects was performed with the use of the HepG2 cell line (FIG. 3) derived from the human liver (purchased from Riken Cell Bank). The experiment was carried out using the HepG2 cells that had been cultured for about a week in Dulbecco's Modified Eagle's Medium (DMEM) (Sigma-Aldrich, Japan) (a culture solution) containing 10% bovine serum (FBS, Gibco) and 50 μg/ml penicillin/streptomycin (Invitrogen). FBS was inactivated by heating at 56° C. for 30 minutes and then used. Culture was conducted in a CO2 incubator (SANYO) using a flask in an atmosphere of 5% CO2 at 37° C. […]
Since the metabolism is reduced at low temperatures, substantially no ATP is synthesized in cells. […] The ATP concentration was measured using a 96-well cell culture plate for emission measurement (Nalge Nunc International K.K.) and the HepG2 cells prepared by the method described in (5). […] ATP concentration after preservation was evaluated by adding a luminescent reagent (CellTiter-Glo, Promega) to wells and assaying the luminescent intensity using a microplate reader (Wallac 1420 ARVOsx, PerkinElmer Life Sciences, Japan). […]

[5] = tested on: fertilized eggs of Japanese Black Cattle; test: preservation of fertilized eggs of Japanese Black Cattle at 4° C., survival by microscopic observation; assay type: cell-based
Description: The fertilized eggs of Japanese Black Cattle were subjected to the preservation experiment at 4° C. for 72 to 96 hours (3 to 4 days) using Nfe11, and the survival ratio of the fertilized eggs after preservation was assayed. At the outset, the follicle-stimulating hormones (FSH) were used to subject superovulated […] cattle to artificial insemination. Seven days thereafter, 3 to 6 fertilized eggs at the initial blastocyst stage were removed from the salpinx of the […] cattle and introduced into a straw having a diameter of 400 micrometers. In this case, Nfe11 powder samples were dissolved in a phosphate buffer (PBS) to a concentration of 5 mg/ml or 10 mg/ml, and the recovered fertilized eggs were soaked in the resulting solutions. Both ends of the straw were sealed, the resultant was allowed to stand in a refrigerator at 4° C., and the preservation experiment was carried out for 72 hours to 96 hours. Survival of the fertilized eggs after the preservation experiment was evaluated using a microscopic observation. As a result, the data as shown below were obtained.

| Substance | cell survival ratio (fluorescent dye observation) [1] | survival ratio based on the assay of the amount of LDH [2] [%] | cell protection effects ([1]; HepG2 cell lines, 10 mg/ml in Euro-Collins solution) | survival ratio of HepG2 cells, amount of WST-8 [3] [%] | cell survival ratio, amount of LDH released (100 minus LDH value) ([2]; 48 hours) [%] | cell survival ratio, amount of ATP [4] [%] | survival ratio of cattle fertilized eggs ([5]; 5 mg/ml in PBS, 72 hours) [%] | survival ratio of cattle fertilized eggs ([5]; 5 mg/ml in PBS, 96 hours) [%] | survival ratio of cattle fertilized eggs ([5]; 10 mg/ml in PBS, 96 hours) [%] |
| --- | --- | --- | --- | --- | --- | --- | --- | --- | --- |
| Nfe6: recombinant Nfe peptide from Zoarces elongatus Kner, SEQ ID NO: 2, no thermal hysteresis activity [reference compound] | about 40% | ~56 |  |  |  |  |  |  |  |
| Nfe11: recombinant 66-residue peptide from Zoarces elongatus Kner, amino acid sequence SEQ ID NO: 6, no thermal hysteresis activity | about 75% | ~34 | sufficient cell protection effects | ~48 | ~62 | 60 | 67 | 50 | 50 |
